Source: ChEMBL document CHEMBL5715954, “Silencing c-Myc translation as a therapeutic strategy through targeting PI3Kδ and CK1ε in hematological malignancies” (Blood, 2017)

Experiments:
Parameters in all cases: scale not given: the % may be the effect or the level left
[1] = target: PAS domain-containing serine/threonine-protein kinase (Homo sapiens) (UniProt Q96RG2); experiment: Inhibition of human PASK assessed as enzyme activity at 1 uM using KKLNRTLSFAEPG as substrate preincubated for 20 mins followed by [gamma-33P]-ATP addition and measured after 120 mins by radiometric Hot-SpotSM Kinase assay relative to control
Chain of PAS domain-containing serine/threonine-protein kinase (Homo sapiens) (Q96RG2 whole entry, the tested form may be a part): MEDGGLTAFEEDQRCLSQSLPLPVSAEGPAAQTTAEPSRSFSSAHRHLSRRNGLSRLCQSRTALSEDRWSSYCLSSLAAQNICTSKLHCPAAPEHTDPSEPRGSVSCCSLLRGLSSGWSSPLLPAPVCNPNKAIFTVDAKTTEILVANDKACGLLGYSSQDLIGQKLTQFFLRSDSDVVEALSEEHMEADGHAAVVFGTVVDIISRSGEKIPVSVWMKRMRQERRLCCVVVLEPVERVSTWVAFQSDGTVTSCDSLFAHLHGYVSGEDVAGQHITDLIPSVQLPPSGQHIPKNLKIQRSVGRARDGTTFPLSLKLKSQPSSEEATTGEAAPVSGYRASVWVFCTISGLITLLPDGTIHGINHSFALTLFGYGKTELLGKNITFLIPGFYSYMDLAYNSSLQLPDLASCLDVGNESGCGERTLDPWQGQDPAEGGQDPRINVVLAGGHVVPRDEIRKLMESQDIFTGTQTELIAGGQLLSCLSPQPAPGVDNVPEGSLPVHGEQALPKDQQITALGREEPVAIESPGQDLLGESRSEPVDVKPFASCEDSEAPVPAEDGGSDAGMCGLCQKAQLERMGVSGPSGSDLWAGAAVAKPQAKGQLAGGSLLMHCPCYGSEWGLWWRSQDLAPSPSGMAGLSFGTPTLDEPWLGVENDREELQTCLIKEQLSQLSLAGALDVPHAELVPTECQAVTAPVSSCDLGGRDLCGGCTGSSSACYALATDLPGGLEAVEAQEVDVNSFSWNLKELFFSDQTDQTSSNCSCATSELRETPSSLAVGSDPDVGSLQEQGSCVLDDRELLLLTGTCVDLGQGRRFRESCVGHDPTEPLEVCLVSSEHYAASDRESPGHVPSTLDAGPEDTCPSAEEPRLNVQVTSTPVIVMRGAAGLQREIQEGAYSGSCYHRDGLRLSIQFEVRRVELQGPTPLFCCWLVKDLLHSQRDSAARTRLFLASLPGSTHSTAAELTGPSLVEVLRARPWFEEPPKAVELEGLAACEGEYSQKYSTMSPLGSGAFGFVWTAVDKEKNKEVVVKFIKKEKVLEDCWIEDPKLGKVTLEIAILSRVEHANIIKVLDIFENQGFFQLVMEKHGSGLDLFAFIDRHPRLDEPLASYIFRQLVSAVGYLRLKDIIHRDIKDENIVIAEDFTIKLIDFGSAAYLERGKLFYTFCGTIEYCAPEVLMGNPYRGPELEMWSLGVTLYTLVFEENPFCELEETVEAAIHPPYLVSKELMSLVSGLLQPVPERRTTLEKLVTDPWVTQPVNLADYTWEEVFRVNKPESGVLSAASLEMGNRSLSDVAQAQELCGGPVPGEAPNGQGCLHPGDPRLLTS

[2] = target: CDK6/cyclin D3 (Homo sapiens) (UniProt P30281+Q00534); experiment: Inhibition of human CDK6/cyclin D3 assessed as enzyme activity at 1 uM using RB Protein as substrate preincubated for 20 mins followed by [gamma-33P]-ATP addition and measured after 120 mins by radiometric Hot-SpotSM Kinase assay relative to control; format: protein-complex assay
[3] = target: Epidermal growth factor receptor (Homo sapiens) (UniProt P00533); experiment: Inhibition of human EGFR assessed as enzyme activity at 1 uM using poly[Glu:Tyr] (4:1) as substrate preincubated for 20 mins followed by [gamma-33P]-ATP addition and measured after 120 mins by radiometric Hot-SpotSM Kinase assay relative to control
Chain of Epidermal growth factor receptor (Homo sapiens) (P00533 whole entry): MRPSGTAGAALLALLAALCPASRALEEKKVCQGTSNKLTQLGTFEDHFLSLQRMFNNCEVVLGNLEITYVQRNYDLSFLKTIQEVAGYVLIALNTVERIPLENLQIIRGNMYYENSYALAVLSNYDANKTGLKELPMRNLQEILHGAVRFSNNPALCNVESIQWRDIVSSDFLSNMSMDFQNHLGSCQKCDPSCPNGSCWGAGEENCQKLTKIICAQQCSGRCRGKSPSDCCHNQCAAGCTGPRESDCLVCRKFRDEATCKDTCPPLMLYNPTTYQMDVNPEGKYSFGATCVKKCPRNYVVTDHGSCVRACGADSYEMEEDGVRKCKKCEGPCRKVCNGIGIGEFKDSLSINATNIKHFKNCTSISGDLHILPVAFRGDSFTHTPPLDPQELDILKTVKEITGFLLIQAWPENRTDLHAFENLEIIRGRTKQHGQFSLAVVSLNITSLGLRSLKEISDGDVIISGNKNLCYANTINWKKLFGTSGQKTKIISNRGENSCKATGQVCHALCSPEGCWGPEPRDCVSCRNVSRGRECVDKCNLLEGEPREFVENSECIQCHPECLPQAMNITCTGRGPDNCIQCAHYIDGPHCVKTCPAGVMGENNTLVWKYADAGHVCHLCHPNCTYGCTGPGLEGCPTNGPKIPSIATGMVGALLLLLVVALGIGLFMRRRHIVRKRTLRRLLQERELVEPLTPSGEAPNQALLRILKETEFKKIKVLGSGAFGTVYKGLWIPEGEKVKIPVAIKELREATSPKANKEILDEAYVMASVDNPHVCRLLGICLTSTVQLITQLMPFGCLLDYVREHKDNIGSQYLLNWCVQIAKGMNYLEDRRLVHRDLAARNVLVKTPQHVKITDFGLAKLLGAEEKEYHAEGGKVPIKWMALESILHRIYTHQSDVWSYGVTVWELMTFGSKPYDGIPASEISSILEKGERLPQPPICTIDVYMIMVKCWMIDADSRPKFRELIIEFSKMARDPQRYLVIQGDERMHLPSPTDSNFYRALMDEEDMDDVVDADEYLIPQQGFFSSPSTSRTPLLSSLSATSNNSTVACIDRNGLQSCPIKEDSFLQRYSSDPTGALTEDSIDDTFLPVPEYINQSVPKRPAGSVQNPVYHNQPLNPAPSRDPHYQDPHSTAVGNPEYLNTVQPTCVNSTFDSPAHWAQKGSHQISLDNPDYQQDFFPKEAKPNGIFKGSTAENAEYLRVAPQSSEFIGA

[4] = target: Serine/threonine-protein kinase Chk2 (Homo sapiens) (UniProt O96017); experiment: Inhibition of human CHK2 assessed as enzyme activity at 1 uM using KKKVSRSGLYRSPSMPENLNRPR as substrate preincubated for 20 mins followed by [gamma-33P]-ATP addition and measured after 120 mins by radiometric Hot-SpotSM Kinase assay relative to control
Chain of Serine/threonine-protein kinase Chk2 (Homo sapiens) (O96017 whole entry): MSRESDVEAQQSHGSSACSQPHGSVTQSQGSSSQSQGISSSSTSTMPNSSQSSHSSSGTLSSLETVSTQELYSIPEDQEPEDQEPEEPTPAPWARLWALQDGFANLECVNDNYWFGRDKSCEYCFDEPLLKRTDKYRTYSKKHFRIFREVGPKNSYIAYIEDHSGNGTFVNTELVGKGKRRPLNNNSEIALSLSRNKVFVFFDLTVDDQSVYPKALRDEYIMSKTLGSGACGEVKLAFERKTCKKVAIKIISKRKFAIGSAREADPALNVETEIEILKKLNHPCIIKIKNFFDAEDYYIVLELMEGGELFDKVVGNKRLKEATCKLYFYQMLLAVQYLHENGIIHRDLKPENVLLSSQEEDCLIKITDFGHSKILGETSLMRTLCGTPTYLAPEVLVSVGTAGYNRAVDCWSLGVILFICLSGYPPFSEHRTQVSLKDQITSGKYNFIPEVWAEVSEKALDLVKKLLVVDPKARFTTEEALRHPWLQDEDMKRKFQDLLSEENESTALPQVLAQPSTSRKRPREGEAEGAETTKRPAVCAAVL

[5] = target: T1, Tyrosine-protein kinase receptor TYRO3 (Homo sapiens) (UniProt Q06418); experiment: Inhibition of human TYRO3 assessed as enzyme activity at 1 uM using poly[Glu:Tyr] (4:1) as substrate preincubated for 20 mins followed by [gamma-33P]-ATP addition and measured after 120 mins by radiometric Hot-SpotSM Kinase assay relative to control
T1 sequence (whole entry): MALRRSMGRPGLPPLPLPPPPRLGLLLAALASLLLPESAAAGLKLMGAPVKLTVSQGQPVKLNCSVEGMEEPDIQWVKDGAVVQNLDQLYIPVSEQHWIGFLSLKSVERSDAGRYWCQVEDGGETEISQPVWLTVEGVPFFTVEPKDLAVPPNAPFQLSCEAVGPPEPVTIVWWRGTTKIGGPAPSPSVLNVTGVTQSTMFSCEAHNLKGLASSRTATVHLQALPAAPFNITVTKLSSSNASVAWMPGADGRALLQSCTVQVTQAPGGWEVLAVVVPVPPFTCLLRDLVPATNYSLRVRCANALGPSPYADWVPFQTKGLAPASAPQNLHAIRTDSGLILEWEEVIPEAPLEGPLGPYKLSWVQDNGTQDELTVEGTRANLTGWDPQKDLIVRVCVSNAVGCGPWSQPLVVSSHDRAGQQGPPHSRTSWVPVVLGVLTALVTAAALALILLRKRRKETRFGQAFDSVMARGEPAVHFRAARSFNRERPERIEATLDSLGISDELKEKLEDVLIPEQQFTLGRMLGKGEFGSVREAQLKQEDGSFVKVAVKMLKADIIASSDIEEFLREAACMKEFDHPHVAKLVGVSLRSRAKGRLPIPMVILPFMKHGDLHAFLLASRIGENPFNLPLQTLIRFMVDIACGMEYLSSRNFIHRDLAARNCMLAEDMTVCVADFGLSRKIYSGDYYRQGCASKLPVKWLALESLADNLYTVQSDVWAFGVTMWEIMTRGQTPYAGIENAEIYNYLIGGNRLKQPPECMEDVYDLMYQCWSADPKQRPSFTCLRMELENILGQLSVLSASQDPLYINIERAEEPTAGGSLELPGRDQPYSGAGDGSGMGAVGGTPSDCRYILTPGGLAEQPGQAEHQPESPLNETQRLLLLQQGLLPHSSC

[6] = target: Homeodomain-interacting protein kinase 1 (Homo sapiens) (UniProt Q86Z02); experiment: Inhibition of human HIPK1 assessed as enzyme activity at 1 uM using myelin basic protein as substrate preincubated for 20 mins followed by [gamma-33P]-ATP addition and measured after 120 mins by radiometric Hot-SpotSM Kinase assay relative to control
Chain of Homeodomain-interacting protein kinase 1 (Homo sapiens) (Q86Z02 whole entry, looked up): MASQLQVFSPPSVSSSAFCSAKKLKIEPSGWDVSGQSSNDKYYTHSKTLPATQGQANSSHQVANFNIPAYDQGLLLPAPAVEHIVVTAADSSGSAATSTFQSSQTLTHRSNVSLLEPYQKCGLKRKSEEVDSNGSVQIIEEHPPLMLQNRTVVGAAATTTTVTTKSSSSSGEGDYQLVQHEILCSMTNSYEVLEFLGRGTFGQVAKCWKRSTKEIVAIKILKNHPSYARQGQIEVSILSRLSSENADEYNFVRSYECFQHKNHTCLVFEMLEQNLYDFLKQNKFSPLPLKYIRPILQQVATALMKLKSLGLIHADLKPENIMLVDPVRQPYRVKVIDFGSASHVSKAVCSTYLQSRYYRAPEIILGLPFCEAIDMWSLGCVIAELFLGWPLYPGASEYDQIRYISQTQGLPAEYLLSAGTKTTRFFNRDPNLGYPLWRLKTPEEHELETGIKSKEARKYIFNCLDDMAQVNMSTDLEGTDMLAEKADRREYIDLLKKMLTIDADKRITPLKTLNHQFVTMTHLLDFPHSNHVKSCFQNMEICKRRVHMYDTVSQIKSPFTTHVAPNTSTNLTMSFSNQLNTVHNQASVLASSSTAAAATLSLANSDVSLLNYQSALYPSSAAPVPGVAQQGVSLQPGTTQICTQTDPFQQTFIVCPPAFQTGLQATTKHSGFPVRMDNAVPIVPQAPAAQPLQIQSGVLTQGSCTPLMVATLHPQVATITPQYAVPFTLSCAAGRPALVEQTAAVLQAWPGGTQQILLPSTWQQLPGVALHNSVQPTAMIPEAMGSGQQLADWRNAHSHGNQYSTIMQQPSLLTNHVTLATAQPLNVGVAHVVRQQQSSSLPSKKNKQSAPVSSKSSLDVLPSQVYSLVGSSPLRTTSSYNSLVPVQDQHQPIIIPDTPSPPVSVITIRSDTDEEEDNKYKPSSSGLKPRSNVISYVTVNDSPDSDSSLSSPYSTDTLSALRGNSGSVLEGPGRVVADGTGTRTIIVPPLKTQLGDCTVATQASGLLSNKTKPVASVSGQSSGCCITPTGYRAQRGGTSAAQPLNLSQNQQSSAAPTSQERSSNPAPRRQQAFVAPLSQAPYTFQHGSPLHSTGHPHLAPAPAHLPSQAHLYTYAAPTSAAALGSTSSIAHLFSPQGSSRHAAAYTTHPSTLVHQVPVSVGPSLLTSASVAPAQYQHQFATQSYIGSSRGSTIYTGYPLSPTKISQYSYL

[7] = target: Serine/threonine-protein kinase 33 (Homo sapiens) (UniProt Q9BYT3); experiment: Inhibition of human STK33 assessed as enzyme activity at 1 uM using myelin basic protein as substrate preincubated for 20 mins followed by [gamma-33P]-ATP addition and measured after 120 mins by radiometric Hot-SpotSM Kinase assay relative to control
Chain of Serine/threonine-protein kinase 33 (Homo sapiens) (Q9BYT3 whole entry, looked up): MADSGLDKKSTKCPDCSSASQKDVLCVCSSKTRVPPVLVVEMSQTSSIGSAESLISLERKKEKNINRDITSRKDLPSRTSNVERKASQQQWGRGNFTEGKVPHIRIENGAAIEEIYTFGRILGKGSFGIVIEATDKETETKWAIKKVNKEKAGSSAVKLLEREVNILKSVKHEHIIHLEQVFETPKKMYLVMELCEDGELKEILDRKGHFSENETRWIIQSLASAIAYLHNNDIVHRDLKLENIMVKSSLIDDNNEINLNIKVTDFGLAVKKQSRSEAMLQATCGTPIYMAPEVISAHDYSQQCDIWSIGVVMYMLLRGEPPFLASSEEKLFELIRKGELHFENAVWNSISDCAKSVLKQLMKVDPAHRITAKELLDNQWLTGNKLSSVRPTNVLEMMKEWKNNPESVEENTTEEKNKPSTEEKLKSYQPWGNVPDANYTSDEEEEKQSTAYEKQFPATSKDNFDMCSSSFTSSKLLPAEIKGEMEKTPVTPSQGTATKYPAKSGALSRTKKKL

[8] = target: T2, Dual serine/threonine and tyrosine protein kinase (Homo sapiens) (UniProt Q6XUX3); experiment: Inhibition of human RIPK5 assessed as enzyme activity at 1 uM using myelin basic protein as substrate preincubated for 20 mins followed by [gamma-33P]-ATP addition and measured after 120 mins by radiometric Hot-SpotSM Kinase assay relative to control
T2 sequence (whole entry): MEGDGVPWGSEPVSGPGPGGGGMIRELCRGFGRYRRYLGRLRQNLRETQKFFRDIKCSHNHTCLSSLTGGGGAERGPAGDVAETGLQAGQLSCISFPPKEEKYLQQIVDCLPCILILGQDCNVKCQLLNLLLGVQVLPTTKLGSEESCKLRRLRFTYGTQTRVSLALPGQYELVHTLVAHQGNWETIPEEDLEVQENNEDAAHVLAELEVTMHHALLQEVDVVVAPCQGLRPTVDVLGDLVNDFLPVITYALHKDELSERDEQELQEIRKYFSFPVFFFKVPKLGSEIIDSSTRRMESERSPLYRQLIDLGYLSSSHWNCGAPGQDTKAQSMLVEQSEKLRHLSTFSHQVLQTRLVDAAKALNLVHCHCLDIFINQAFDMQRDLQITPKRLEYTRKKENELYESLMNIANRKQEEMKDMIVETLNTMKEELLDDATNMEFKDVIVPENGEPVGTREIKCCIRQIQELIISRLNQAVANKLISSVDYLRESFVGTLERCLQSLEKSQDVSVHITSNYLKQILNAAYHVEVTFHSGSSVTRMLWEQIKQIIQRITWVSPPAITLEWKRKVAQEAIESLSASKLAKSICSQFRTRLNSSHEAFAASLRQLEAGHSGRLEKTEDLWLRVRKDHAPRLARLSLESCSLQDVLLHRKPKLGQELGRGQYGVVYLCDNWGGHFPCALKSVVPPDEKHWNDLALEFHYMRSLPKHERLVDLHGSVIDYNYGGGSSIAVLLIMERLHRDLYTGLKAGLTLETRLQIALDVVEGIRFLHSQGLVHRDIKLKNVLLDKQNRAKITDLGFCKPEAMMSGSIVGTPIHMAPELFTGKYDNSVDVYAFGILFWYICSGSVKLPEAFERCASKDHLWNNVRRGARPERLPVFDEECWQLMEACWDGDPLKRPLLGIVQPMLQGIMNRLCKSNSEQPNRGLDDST

Homo sapiens = species on record: Homo sapiens; experiment: Inhibition of human PKA assessed as enzyme activity at 1 uM using LCGRTGRRNSI as substrate preincubated for 20 mins followed by [gamma-33P]-ATP addition and measured after 120 mins by radiometric Hot-SpotSM Kinase assay relative to control

SMILES | Activity [1] [%] | Activity [2] [%] | Activity [3] [%] | Activity [4] [%] | Activity [5] [%] | Activity [6] [%] | Activity [7] [%] | Activity [8] [%] | Activity (Homo sapiens) [%]
CC[C@H](Nc1ncnc2[nH]cnc12)c1nc2cccc(F)c2c(=O)n1-c1ccccc1 | 99.6 | 102 | 95.4 | 93.7 | 98.9 | 102 | 101 | 90 | 102
C[C@H](Nc1ncnc2nc[nH]c12)c1cc2cccc(Cl)c2c(=O)n1-c1ccccc1 | 95.3 | 96.5 | 99.1 | 91.3 | 98.5 | 103 | 101 | 96 | 95.5
CC(C)Oc1ccc(-c2nn([C@@H](C)c3oc4ccc(F)cc4c(=O)c3-c3cccc(F)c3)c3ncnc(N)c23)cc1F [UMBRALISIB] | 98.7 | 97.8 | 97.7 | 93.2 | 96.8 | 101 | 106 | 90.7 | 91.4
